Publication PMC7575536, “Synthesis of an acyl-acyl carrier protein synthetase inhibitor to study fatty acid recycling” (Scientific Reports, 2020)
Where a name gives a salt, the structure may show the parent alone.

Target: T1, VhAasS (Vibrio harveyi, UniProt Q00IB3)
T1 construct: gene aasS; His6-tagged, expressed in E. coli BL21[DE3], Ni-NTA purified; tag removal not mentioned
T1 sequence (Q00IB3 1-533): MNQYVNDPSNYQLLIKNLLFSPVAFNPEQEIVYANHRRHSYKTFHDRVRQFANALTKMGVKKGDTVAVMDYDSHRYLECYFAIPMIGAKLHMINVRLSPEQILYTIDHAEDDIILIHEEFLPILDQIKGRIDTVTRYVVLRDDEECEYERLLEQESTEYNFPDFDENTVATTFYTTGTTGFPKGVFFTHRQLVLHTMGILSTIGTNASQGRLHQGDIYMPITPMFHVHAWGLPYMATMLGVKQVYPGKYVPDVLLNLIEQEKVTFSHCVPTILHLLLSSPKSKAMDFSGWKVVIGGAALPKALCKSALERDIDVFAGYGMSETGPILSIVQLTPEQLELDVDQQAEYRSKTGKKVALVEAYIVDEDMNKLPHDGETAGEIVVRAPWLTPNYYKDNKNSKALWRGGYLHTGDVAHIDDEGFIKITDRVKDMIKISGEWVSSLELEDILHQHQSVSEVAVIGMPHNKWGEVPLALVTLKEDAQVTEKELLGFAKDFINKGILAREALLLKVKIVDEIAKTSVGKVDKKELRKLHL
Experiment: urea-PAGE of acyl-ACP loading, ImageJ densitometry
Assay type: biochemical
Conditions: decanoic acid 1 mM, ATP 10 mM, MgCl2 12.5 mM, TCEP 2.5 mM; holo-EcACP or holo-VcACP 30 µM; enzyme 0.5 µM; pH 7.5, 37 °C, 24 h

**Q.** `CCCCCCCCCC(=O)NS(=O)(=O)OC[C@H]1O[C@@H](n2cnc3c(N)ncnc32)[C@H](O)[C@@H]1O` [compound 7, 5′-O-(N-decanylsulfamoyl)adenosine mono sodium salt] was tested. Which “% inhibition at 1 mM” value did it give?
**A.** In the presence of C10-AMS, VhAasS is completely inhibited from loading decanoic acid
